Source: ChEMBL document CHEMBL3046026, “Evaluation of the curative and protectant activity of fungicides and fungicide-adjuvant mixtures on Phomopsis cane and leaf spot of grape: A controlled environment study” (2007)
Activity calls are given as the source filed them. No cut-off for these calls is given here.

How the values were obtained:
Diaporthe ampelina [1] = test: Antifungal activity against Diaporthe ampelina infected grape plant assessed as decrease in lesions on leaf at 1.7 m3/ha incubated for 24 hr prior to treatment with 20 hr wetness period followed by 4 hr of drying period measured after 4 weeks relative to control in presence of regulaid; assay type: functional, organism-based
Diaporthe ampelina [2] = test: Antifungal activity against Diaporthe ampelina infected grape plant assessed as disease severity at internodes at 1.7 m3/ha incubated for 24 hr prior to treatment with 20 hr wetness period followed by 4 hr of drying period measured after 4 weeks in presence of regulaid (reference value: 3.2%); assay type: functional
Diaporthe ampelina [3] = test: Antifungal activity against Diaporthe ampelina infected grape plant assessed as re-isolation of mycelium from infected vines at 0.25 […] a.i./ha treated for weeks in presence of regulaid followed by inoculation on medium measured after 72 hr (reference value: 62.5%); assay type: functional
Diaporthe ampelina [4] = test: Antifungal activity against Diaporthe ampelina infected grape plant assessed as disease severity at internodes at 0.25 […] a.i./ha treated 3 to 6 hr prior to inoculation followed by 24 hr wetness period measured after 4 weeks in presence of regulaid (reference value: 2.9%); assay type: functional
Diaporthe ampelina [5] = test: Antifungal activity against Diaporthe ampelina infected grape plant assessed as disease severity at internodes at 0.25 […] a.i./ha treated 3 to 6 hr prior to inoculation followed by 24 hr wetness period measured after 4 weeks (reference value: 2.6%); assay type: functional
Diaporthe ampelina [6] = test: (§1) Antifungal activity against Diaporthe ampelina infected grape plant assessed as disease severity at internodes at 0.25 […] a.i./ha incubated for 24 hr prior to treatment with 20 hr wetness period followed by 4 hr of drying period measured after 4 weeks in presence of regulaid (reference value: 4.7%); assay type: functional
Diaporthe ampelina [7] = test: Antifungal activity against Diaporthe ampelina infected grape plant assessed as decrease in lesions on leaf at 0.25 […] a.i./ha incubated for 24 hr prior to treatment with 20 hr wetness period followed by 4 hr of drying period measured after 4 weeks relative to control in presence of regulaid; assay type: functional, organism-based
Diaporthe ampelina [8] = test: Antifungal activity against Diaporthe ampelina infected grape plant assessed as decrease in lesions on leaf at 0.25 […] a.i./ha incubated for 48 hr prior to treatment with 24 hr wetness period followed by 24 hr of drying period measured after 4 weeks relative to control in presence of regulaid; assay type: functional, organism-based
Diaporthe ampelina [9] = test: Antifungal activity against Diaporthe ampelina infected grape plant assessed as decrease in lesions on leaf at 0.25 […] a.i./ha treated 3 to 6 hr prior to inoculation followed by 24 hr wetness period measured after 4 weeks relative to control in presence of regulaid; assay type: functional, organism-based
Diaporthe ampelina [10] = test: Antifungal activity against Diaporthe ampelina infected grape plant assessed as decrease in lesions on leaf at 0.25 […] a.i./ha treated 3 to 6 hr prior to inoculation followed by 24 hr wetness period measured after 4 weeks relative to control; assay type: functional, organism-based
Diaporthe ampelina [11] = test: as §1, with “for 48” for “for 24”, “with 24” for “with 20”, “by 24” for “by 4”, “value: 12.2%)” for “value: 4.7%)”; assay type: functional
Diaporthe ampelina [12] = test: Antifungal activity against Diaporthe ampelina infected grape plant assessed as decrease in lesions on leaf at 0.25 […] a.i./ha incubated for 20 hr prior to treatment with 16 hr wetness period followed by 4 hr of drying period measured after 4 weeks relative to control in presence of regulaid; assay type: functional, organism-based
Diaporthe ampelina [13] = test: Antifungal activity against Diaporthe ampelina infected grape plant assessed as disease severity at internodes at 0.25 […] a.i./ha incubated for 20 hr prior to treatment with 16 hr wetness period followed by 4 hr of drying period measured after 4 weeks in presence of regulaid (reference value: 7.3%); assay type: functional

CO/C=C(/C(=O)OC)c1ccccc1Oc1cc(Oc2ccccc2C#N)ncn1 [AZOXYSTROBIN]
Activity (Diaporthe ampelina [1]): inactive
Activity (Diaporthe ampelina [2]): 3.2%
Activity (Diaporthe ampelina [3]): 8.4%
Activity (Diaporthe ampelina [4]): 0.1%
Activity (Diaporthe ampelina [5]): 0.3%
Activity (Diaporthe ampelina [6]): 4.9%
Activity (Diaporthe ampelina [7]): inactive
Activity (Diaporthe ampelina [8]): inactive
Activity (Diaporthe ampelina [9]): Active
Activity (Diaporthe ampelina [10]): Active
Activity (Diaporthe ampelina [11]): 3.7%
Activity (Diaporthe ampelina [12]): inactive
Activity (Diaporthe ampelina [13]): 5.3%
